Experimental data reported in PMC7179022, “Carvacrol Prodrugs with Antimicrobial Activity Loaded on Clay Nanocomposites” (Materials, 2020).
In brackets after ≈: the same amount, converted by molar mass.

Experiments:
[1] = Chemical conversion of carvacrol prodrugs to carvacrol in water and buffer solutions (HPLC); assay type: physicochemical; conditions: 37 °C, 1 mg/mL, mean (±SD) of three experiments
Description: We removed 400 μL samples at various time intervals and drug concentrations were analyzed by high performance liquid chromatography (HPLC) using an Agilent 1260 Infinity II HPLC (Agilent, Santa Clara, CA, USA) consisting of quaternary pump, autosampler, column oven, and UV-Vis diode-array detector. Samples were run in an Agilent Poroshell 120 EC-C18 column (4 μm, 4.60 × 150 mm; Agilent, Santa Clara, CA, USA) maintained at 25 °C. The mobile phase consisted of a mixture 50:50 v/v H2O MilliQ (Merck KGaA, Darmstadt, Germany) and CH3CN with 0.1% trifluoracetic acid (TFA) flushing at an isocratic flow rate of 1 mL/min. The detector was set at a wavelength of 270 nm. Data were processed using LC Open LAB HPLC 1260 software (Agilent, Santa Clara, CA, USA). Results are reported as relative difference (RD%) of prodrugs conversion, calculated with Equation (1):(1) RD%=Ci− Cf/Ci ×100 where Ci is the prodrug concentration at zero time point and Cf is the prodrug concentration at the end of incubation.

[2] = In vitro release studies of WSCP1-3 loaded-VHS in a dissolution tester; assay type: physicochemical; conditions: 37 °C, from prodrug-VHS nanohybrid
Description: Release studies were conducted in a dissolution tester (Sotax AT7, SOTAX Group, Aesch, Switzerland). […] During the test, temperature was maintained constant at 37 °C and agitation was achieved using a paddle system set to 100 rpm. At predetermined time intervals, 5 mL of dissolution medium was withdrawn, filtered with 0.45 μm Millipore^© membranes, and replaced with an equal volume of the corresponding fresh dissolution medium. […] Va is the volume picked up; and Ci is the concentration of drug at time i.

[3] = design: method as in PMID 16869897, PMID 31284397; conditions: cited from earlier work
[4] = cited from earlier work
[5] = acid pH (0.1 M HCl, pH 1.2), 120 min
[6] = pH 6.8 phosphate buffer, 240 min

| Compound | pseudo-first-order dissociation rate constant Kobs ([1]; pH 6.8 buffer) | amount of prodrug released from VHS [2, 5] | amount of prodrug released from VHS [2, 6] | pseudo-first-order dissociation rate constant Kobs ([1]; pH 7.4 buffer) | octanol/water partition coefficient (logP o/w) [3] | water solubility [4] |
| --- | --- | --- | --- | --- | --- | --- |
| Cc1ccc(C(C)C)cc1OC(=O)CN [WSCP1] | 0.2982 (±0.0106) h^−1 | 38% | 65% |  |  |  |
| Cc1ccc(C(C)C)cc1OC(=O)[C@@H](C)N [WSCP2] | 0.9027 (±0.0042) h^−1 | 54% | 78% | 0.7878 (±0.0629) h^−1 |  |  |
| Cc1ccc(C(C)C)cc1OC(=O)CCN [WSCP3] | 0.0381 (±0.0002) h^−1 | 45% | 44% | 0.0420 (±0.0006) h^−1 |  |  |
| Cc1ccc(C(C)C)cc1O [carvacrol, 2-methyl-5-isopropylphenol] |  |  |  |  | 3.64 | 0.11 mg/mL (≈ 732 µM) |
